# Laboratory results from patent US7723289B2, “PIF tetrapeptides” (BioIncept, LLC, priority 2003, dated 2010).
# No end group written: not given here.
# How the values were obtained:
# PBMC [1] = assay: FITC-labeled PIF binding to PBMC subpopulations (flow cytometry); design: species or system human; settings: 0.75 to 48.19 μM, 1 h room temperature
# Protocol: Expression of PIF-1(15) (SEQ ID NO:1), receptor following PHA induced PBMC proliferation CD-4 T cells; CD-8 T cells; NK cell and B cells (unstimulated-top); (PHA stimulated-bottom). Flow cytometry analysis of PBMC following exposure to FITC sPIF-1(15) (SEQ ID NO:13) % expression was determined in PBMC subtypes before and after exposure to 1 ug/ml PHA for 24 hours.
# (§1) Human PBMC were isolated by the Ficoll method. FITC-labeled nPIF-115 (SEQ ID NO: 1) and (FITC)-labeled scrPIF-1 (SEQ ID NO:5) and match-size irrelevant peptide (FITC)-labeled negative controls negPIF-1(15) (SEQ ID NO:11), were dissolved in PBS at concentrations ranging from 0.75 to 48.19 μM, and were incubated with 500,000 lymphocytes for 1 h at room temperature. The cells were washed 6 times with PBS and resuspended in 500 μl of the same buffer. T-cells and monocytes identification was performed in independent experiments by incubation with anti-CD3 and anti-CD14 antibody-phycoerithryn (PE) labeled. nPIF-115 (SEQ ID NO: 1) binding to PBMC was determined by flow cytometry. In addition, rosettes formed by T cell-platelets were detected by flow cytometry using anti-CD3 antibody-PE and anti-CD41a antibody-FITC (all antibodies were from Pharmingen Inc.).
# Using flow cytometry fluoroscein-labeled sPIF-115 (SEQ ID NO: 13) binding to immune cells was examined on resting PBMC.
# mice = assay: Intravaginal administration twice daily for seven days in mated mice; assay type: in vivo; settings: mice that conceived; implantation sites and viable embryos unaffected
# Protocol: Female mice were mated with mice from the same strain. Subsequently, on day 0 (presumed day of mating) PIF-1scr in saline solution was administered intravaginally twice daily for seven days (Dr Alan Hoberman, Argus, Inc). The dose was 800 ug/day, 150 ug/ml or saline vehicle only (5 animals in each group). Subsequently, mice were sacrificed at day 12 of presumed gestation and Caesarean-sectioned. Corpora lutea, implantation sites and live and dead embryos were recorded.
# PBMC [2] = assay: PIF and analogues on release of cytokines +/- platebound mAbCD3 (Table 4); assay type: cell-based; design: IL-1β / TNFa / IL-4 / IL-5 / IL-6 / IL-10 / GM-CSM / IFN-g: unit not given here
# [3] = system: donor lymphocytes and platelets; assay type: cell-based, human; settings: flow cytometric determination; data not shown
# Excerpt: The PIF assay, as disclosed in U.S. Pat. No. 5,646,003 to Barnea et al., entitled “Preimplantation Factor” issued Jul. 9, 1997, and in U.S. Pat. No. 5,981,198 to Barnea et al., entitled “Preimplantation Factor” granted Nov. 9, 1999, the disclosures of which are incorporated herein by reference in their entirety, may be used to measure the response of the immune system to pregnancy specific preimplantation factors. […] Lymphocyte-platelet rosettes result from the interaction of the T cell surface protein CD2 with its ligand CD58 expressed on the platelet membrane. Anti-CD2, by binding to the CD2 antigen on the T cells, inhibits their interaction with platelets.
# as §1
# β-3 integrin = β-3 integrin expression by human endometrial epithelial cells (flow cytometry, immunocytochemistry); assay type: cell-based; settings: hEEC, 2-day culture, 1-500 nM
# Protocol: Human endometrial tissues were digested and stromal and epithelial cells (hEEC) isolated and cultured with a fetal bovine serum (FBS)-enriched medium until confluent layers were obtained. After that the cells were cultured for two more days in a FBS free-medium followed by a further 2-day culture in the same medium containing PIF peptides (1-500 nM).
# (§2) In addition, to compare the recovery of β-3 integrin expression with PIF effects described after cultured hEEC in a free-fetal bovine serum (FBS) medium some cells were cultured again in FBS-medium. […] PIF binding to epithelial cells was also examined. Binding was examined using MaBCD2 staining.
# epithelial cells = assay: PIF binding to endometrial epithelial cells (MaBCD2 staining); design: species or system human; settings: compared to non-relevant IgG
# Protocol: as §2
substance,measurement,setting,value
"GMRELQRSANK [negPIF-1(15), reference compound]",labeling of T cell-platelet rosettes by FITC-labeled peptide,PBMC [1],not labeled
"GRVDPSNKSMPKDIA [scrPIF-115, GRVDPSNKSMPKDIA]",toxic or teratogenic effects,mice,No toxic or teratogenic effects
MVRIK [sPIF-1(5)],GM-CSM,"PBMC [2]; C- (platebound mAbCD3), /1",26.8
same,IFN-g,"PBMC [2]; C- (platebound mAbCD3), /1",98.2
same,IL-1β,"PBMC [2]; C- (platebound mAbCD3), /1",10.7
same,IL-2,"PBMC [2]; C- (platebound mAbCD3), /1",19.2
same,IL-4,"PBMC [2]; C- (platebound mAbCD3), /1",16.93
same,IL-5,"PBMC [2]; C- (platebound mAbCD3), /1",0
same,IL-6,"PBMC [2]; C- (platebound mAbCD3), /1",221.8
same,IL-8,"PBMC [2]; C- (platebound mAbCD3), /1",>5000
same,IL-10,"PBMC [2]; C- (platebound mAbCD3), /1",68.5
same,TNFa,"PBMC [2]; C- (platebound mAbCD3), /1",142.8
same,GM-CSM,"PBMC [2]; C- (platebound mAbCD3), /50",20.7
same,IFN-g,"PBMC [2]; C- (platebound mAbCD3), /50",81.2
same,IL-1β,"PBMC [2]; C- (platebound mAbCD3), /50",5.3
same,IL-2,"PBMC [2]; C- (platebound mAbCD3), /50",20.0
same,IL-4,"PBMC [2]; C- (platebound mAbCD3), /50",0
same,IL-5,"PBMC [2]; C- (platebound mAbCD3), /50",0
same,IL-6,"PBMC [2]; C- (platebound mAbCD3), /50",178.9
same,IL-8,"PBMC [2]; C- (platebound mAbCD3), /50",>5000
same,IL-10,"PBMC [2]; C- (platebound mAbCD3), /50",57.2
same,TNFa,"PBMC [2]; C- (platebound mAbCD3), /50",81.1
same,GM-CSM,"PBMC [2]; U- (no mAbCD3), /1",0
same,IFN-g,"PBMC [2]; U- (no mAbCD3), /1",0
same,IL-1β,"PBMC [2]; U- (no mAbCD3), /1",0
same,IL-2,"PBMC [2]; U- (no mAbCD3), /1",0
same,IL-4,"PBMC [2]; U- (no mAbCD3), /1",0
same,IL-5,"PBMC [2]; U- (no mAbCD3), /1",0
same,IL-6,"PBMC [2]; U- (no mAbCD3), /1",28.9
same,IL-8,"PBMC [2]; U- (no mAbCD3), /1",763.6
same,IL-10,"PBMC [2]; U- (no mAbCD3), /1",0
same,TNFa,"PBMC [2]; U- (no mAbCD3), /1",0
same,GM-CSM,"PBMC [2]; U- (no mAbCD3), /50",0
same,IFN-g,"PBMC [2]; U- (no mAbCD3), /50",0
same,IL-1β,"PBMC [2]; U- (no mAbCD3), /50",0
same,IL-2,"PBMC [2]; U- (no mAbCD3), /50",0
same,IL-4,"PBMC [2]; U- (no mAbCD3), /50",0
same,IL-5,"PBMC [2]; U- (no mAbCD3), /50",0
same,IL-6,"PBMC [2]; U- (no mAbCD3), /50",37.6
same,IL-8,"PBMC [2]; U- (no mAbCD3), /50",786.4
same,IL-10,"PBMC [2]; U- (no mAbCD3), /50",0
same,TNFa,"PBMC [2]; U- (no mAbCD3), /50",0
same,effect on cytokine secretion,"PBMC [2]; following exposure to CD3Mab, dose dependent",mild
MVRIKPGSA [sPIF-1(9)],increase in the number of rosettes in the presence of the anti-CD2 antibody,[3],four-fold increase
same,GM-CSM,"PBMC [2]; C- (platebound mAbCD3), /1",14.3
same,IFN-g,"PBMC [2]; C- (platebound mAbCD3), /1",86.5
same,IL-1β,"PBMC [2]; C- (platebound mAbCD3), /1",4.8
same,IL-2,"PBMC [2]; C- (platebound mAbCD3), /1",26.4
same,IL-4,"PBMC [2]; C- (platebound mAbCD3), /1",0
same,IL-5,"PBMC [2]; C- (platebound mAbCD3), /1",0
same,IL-6,"PBMC [2]; C- (platebound mAbCD3), /1",177.6
same,IL-8,"PBMC [2]; C- (platebound mAbCD3), /1",>5000
same,IL-10,"PBMC [2]; C- (platebound mAbCD3), /1",49.0
same,TNFa,"PBMC [2]; C- (platebound mAbCD3), /1",60.1
same,GM-CSM,"PBMC [2]; C- (platebound mAbCD3), /50",25.3
same,IFN-g,"PBMC [2]; C- (platebound mAbCD3), /50",132.1
same,IL-1β,"PBMC [2]; C- (platebound mAbCD3), /50",7.8
same,IL-2,"PBMC [2]; C- (platebound mAbCD3), /50",33.7
same,IL-4,"PBMC [2]; C- (platebound mAbCD3), /50",18.16
same,IL-5,"PBMC [2]; C- (platebound mAbCD3), /50",0
same,IL-6,"PBMC [2]; C- (platebound mAbCD3), /50",249.4
same,IL-8,"PBMC [2]; C- (platebound mAbCD3), /50",>5000
same,IL-10,"PBMC [2]; C- (platebound mAbCD3), /50",105.0
same,TNFa,"PBMC [2]; C- (platebound mAbCD3), /50",160.8
same,GM-CSM,"PBMC [2]; U- (no mAbCD3), /1",0
same,IFN-g,"PBMC [2]; U- (no mAbCD3), /1",0
same,IL-1β,"PBMC [2]; U- (no mAbCD3), /1",0
same,IL-2,"PBMC [2]; U- (no mAbCD3), /1",0
same,IL-4,"PBMC [2]; U- (no mAbCD3), /1",0
same,IL-5,"PBMC [2]; U- (no mAbCD3), /1",0
same,IL-6,"PBMC [2]; U- (no mAbCD3), /1",40.8
same,IL-8,"PBMC [2]; U- (no mAbCD3), /1",772.46
same,IL-10,"PBMC [2]; U- (no mAbCD3), /1",0
same,TNFa,"PBMC [2]; U- (no mAbCD3), /1",0
same,GM-CSM,"PBMC [2]; U- (no mAbCD3), /50",0
same,IFN-g,"PBMC [2]; U- (no mAbCD3), /50",0
same,IL-1β,"PBMC [2]; U- (no mAbCD3), /50",0
same,IL-2,"PBMC [2]; U- (no mAbCD3), /50",13.1
same,IL-4,"PBMC [2]; U- (no mAbCD3), /50",0
same,IL-5,"PBMC [2]; U- (no mAbCD3), /50",0
same,IL-6,"PBMC [2]; U- (no mAbCD3), /50",38.7
same,IL-8,"PBMC [2]; U- (no mAbCD3), /50",1480.2
same,IL-10,"PBMC [2]; U- (no mAbCD3), /50",0
same,TNFa,"PBMC [2]; U- (no mAbCD3), /50",0
same,effect on IL6 and 8,PBMC [2]; non-stimulated PBMC,stimulatory effect
same,increase in the expression of β-3-epithelial integrin,β-3 integrin,up to a four-fold increase
same,binding to epithelial cells,epithelial cells,highest binding
